{
  "source": "patent US4386211A",
  "about": "“Anti-ulcer urea compounds” (G. D. Searle & Co., priority 1981, dated 1983)",
  "key": {"H2 receptor": {"tested_on": "H2 receptor", "assay": "Lipolysis assay: histamine-stimulated lipolysis in isolated fat cells", "assay_type": "cell-based", "details": "isolated dog fat cells, histamine 2×10^-6 M; active = 50 percent or more inhibition", "method": "Isolated fat cells of dogs are prepared from adipose tissue. Cells are incubated in the presence or absence of histamine at 2×10^-6 M. Additional flasks contain the compound to be tested, plus histamine. At the end of the incubation the cell cultures are analyzed for glycerol content, and results are converted into a lipolysis rate. The stimulation of lipolysis attributed to histamine (D) is the difference between the rate observed in its presence and absence:\nThese figures are then converted to a percent inhibition by the formula:\nPercent inhibition=(D-E)/D×100"}, "H-2 receptors": {"target": "H-2 receptors (Rattus norvegicus, UniProt P25102)", "sequence (P25102 whole entry)": "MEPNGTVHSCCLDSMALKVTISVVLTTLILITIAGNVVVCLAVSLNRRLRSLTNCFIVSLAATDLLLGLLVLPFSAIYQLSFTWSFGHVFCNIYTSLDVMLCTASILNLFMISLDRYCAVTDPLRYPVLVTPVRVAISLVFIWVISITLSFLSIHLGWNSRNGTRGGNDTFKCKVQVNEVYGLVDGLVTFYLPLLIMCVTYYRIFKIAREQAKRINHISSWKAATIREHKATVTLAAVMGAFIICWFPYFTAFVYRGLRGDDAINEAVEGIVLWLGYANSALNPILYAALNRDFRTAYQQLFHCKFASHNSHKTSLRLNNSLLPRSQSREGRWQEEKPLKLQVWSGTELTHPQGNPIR", "assay": "Rat uterus assay: reversal of histamine inhibition of electrically induced contractions", "details": "isolated rat uterine smooth muscle; dose ratios of 2 or more indicate activity", "method": "Histamine reduces contractions induced by electrical stimulation of the isolated rat uterine smooth muscle, and histamine H-2 antagonists reverse this inhibition. The dose ratio for a specific concentration of test compound is determined by an assay procedure that compares the inhibitory effect of two concentrations of histamine in the presence of the test compound to the inhibitory effect of two concentrations of histamine in the absence of the test compound. The dose ratio is defined as the ratio of the concentration of histamine in the presence of the test compound to the concentration of histamine in the absence of the test compound where both concentrations produce the same inhibition of the electrical response. Dose ratios of 2 or more indicate activity. Compounds that are active at 40 ug/ml will be tested against isoproterenol at the same concentration in a similar test. Compound concentrations that are active against histamine but not against isoproterenol will be classified as specific H-2 antagonists.\nThe same type of receptors H-2 are involved in inhibition of contractions of the rat uterus and stimulation of gastric acid secretion. The rat uterus is therefore used as a model upon which to test for histamine H-2 antagonists that may be effective in treating peptic ulcers."}, "gastric acid secretion": {"tested_on": "gastric acid secretion", "details": "in vivo; cited from earlier work"}, "ulcer formation": {"tested_on": "ulcer formation", "details": "in vivo; cited from earlier work"}, "[1]": {"details": "humans; cited from earlier work"}},
  "data": [
    {"smiles": "CN/C(=N/CCSCc1nc[nH]c1C)NC#N", "note": "[cimetidine]", "values": [
      {"measurement": "classification in lipolysis assay (active against histamine but not norepinephrine = specific)", "setting": "H2 receptor", "value": "specific inhibitors"},
      {"measurement": "activity in rat uterus assay", "setting": "H-2 receptors", "value": "active"},
      {"measurement": "gastric acid secretion", "setting": "gastric acid secretion", "value": "inhibit"},
      {"measurement": "ulcer formation", "setting": "ulcer formation", "value": "inhibit"},
      {"measurement": "severe toxic symptoms", "setting": "[1]", "value": "no severe toxic symptoms"},
      {"measurement": "untoward effects observed", "setting": "[1]", "value": "gynecomastia, elevated SGOT, SGPT and creatine, and increases in serum gastrin"}
    ]},
    {"smiles": "CNC(=S)NCCCCc1cnc[nH]1", "note": "[burimamide]", "values": [
      {"measurement": "activity in rat uterus assay", "setting": "H-2 receptors", "value": "active"},
      {"measurement": "gastric acid secretion", "setting": "gastric acid secretion", "value": "inhibit"},
      {"measurement": "ulcer formation", "setting": "ulcer formation", "value": "inhibit"}
    ]},
    {"smiles": "C/N=C(\\S)NCCSCc1[nH]cnc1C", "note": "[metiamide]", "values": [
      {"measurement": "classification in lipolysis assay (active against histamine but not norepinephrine = specific)", "setting": "H2 receptor", "value": "specific inhibitors"},
      {"measurement": "activity in rat uterus assay", "setting": "H-2 receptors", "value": "active"},
      {"measurement": "gastric acid secretion", "setting": "gastric acid secretion", "value": "inhibit"},
      {"measurement": "ulcer formation", "setting": "ulcer formation", "value": "inhibit"}
    ]}
  ]
}
